Laboratory results reported in the NIST ThermoML archive (doi:10.1016/j.jct.2018.02.022).

Assay: xn = mol fraction of the nth substance listed
Conditions: 92.3 kPa, Liquid; for viscosity: Concentric cylinders viscometry; for speed of sound: Frequency=3 MHz, Single path-length method; for mass density: Vibrating tube method

OCCO [1,2-ethanediol] + O
Conditions | mass density, 303.15 K [kg/m3] | mass density, 308.15 K [kg/m3] | speed of sound, 303.15 K [m/s] | speed of sound, 308.15 K [m/s] | viscosity, 303.15 K [mPa·s] | viscosity, 308.15 K [mPa·s]
x1 = 0.0101 | 1000.04 | 998.43 | 1523.1 | 1532.7 | – | –
x1 = 0.0201 | 1004 | 1002.32 | 1536.3 | 1544.8 | – | –
x1 = 0.0302 | 1007.88 | 1006.13 | 1549.1 | 1556.6 | – | –
x1 = 0.0407 | 1011.76 | 1009.9 | 1561.7 | 1568.1 | – | –
x1 = 0.0494 | 1014.98 | 1013.02 | – | – | 1.164 | 1.059
x1 = 0.0506 | 1015.24 | 1013.36 | 1573 | 1578.4 | – | –
x1 = 0.0605 | 1018.73 | 1016.68 | 1583.6 | 1588 | – | –
x1 = 0.0704 | 1022.12 | 1019.92 | 1594 | 1597.4 | – | –
x1 = 0.0801 | 1025.1 | 1022.9 | 1602.9 | 1605.7 | – | –
x1 = 0.0905 | 1028.31 | 1026.05 | 1612.5 | 1614.3 | – | –
x1 = 0.0986 | 1030.68 | 1028.37 | – | – | 1.555 | 1.38
x1 = 0.0997 | 1031.05 | 1028.71 | 1620.2 | 1621.3 | – | –
x1 = 0.1483 | 1043.73 | 1041.14 | – | – | 1.99 | 1.741
x1 = 0.1493 | 1044.06 | 1041.45 | 1654.1 | 1652 | – | –
x1 = 0.1985 | 1054.47 | 1051.74 | 1676.9 | 1672.2 | – | –
x1 = 0.2072 | 1056.16 | 1053.32 | – | – | 2.564 | 2.226
x1 = 0.2466 | 1063 | 1060.02 | – | – | 2.965 | 2.572
x1 = 0.2487 | 1063.38 | 1060.37 | 1690.5 | 1684.2 | – | –
x1 = 0.298 | 1070.45 | 1067.33 | – | – | 3.541 | 3.066
x1 = 0.2998 | 1070.7 | 1067.57 | 1698.3 | 1690.6 | – | –
x1 = 0.3318 | 1074.59 | 1071.38 | 1700.5 | 1692.2 | – | –
x1 = 0.3399 | 1075.52 | 1072.31 | – | – | 4.029 | 3.48
x1 = 0.3921 | 1080.8 | 1077.51 | – | – | 4.67 | 4.026
x1 = 0.3981 | 1081.34 | 1077.99 | 1701.1 | 1691.7 | – | –
x1 = 0.4446 | 1085.21 | 1081.86 | – | – | 5.349 | 4.605
x1 = 0.4521 | 1085.69 | 1082.37 | 1698.9 | 1688.8 | – | –
x1 = 0.4934 | – | 1085.26 | 1695.7 | 1685.2 | – | –
x1 = 0.5007 | – | 1085.73 | – | – | 6.109 | 5.245
x1 = 0.5485 | 1091.97 | – | – | – | 6.771 | 5.811
x1 = 0.552 | 1092.19 | – | 1690.2 | 1679.4 | – | –
x1 = 0.5846 | 1093.94 | 1090.48 | 1686.7 | 1675.8 | – | –
x1 = 0.6004 | 1094.63 | 1091.17 | – | – | 7.519 | 6.445
x1 = 0.6451 | 1096.63 | 1093.16 | – | – | 8.173 | 7.002
x1 = 0.6481 | 1096.77 | 1093.29 | 1679.9 | 1668.8 | – | –
x1 = 0.6773 | 1097.96 | 1094.48 | 1676.6 | 1665.3 | – | –
x1 = 0.7012 | 1098.83 | 1095.34 | – | – | 9.085 | 7.725
x1 = 0.7421 | 1100.21 | 1096.71 | 1669.4 | 1658 | – | –
x1 = 0.7435 | 1100.29 | 1096.79 | – | – | 9.808 | 8.27
x1 = 0.7811 | 1101.44 | 1097.94 | 1665 | 1653.6 | – | –
x1 = 0.7907 | 1101.74 | 1098.23 | – | – | 10.55 | 8.857
x1 = 0.8497 | – | 1099.81 | 1657.7 | 1646.1 | – | –
x1 = 0.8505 | – | 1099.84 | – | – | 11.54 | 9.617
x1 = 0.89 | 1104.3 | 1100.78 | – | – | 12.15 | 10.11
x1 = 0.9002 | 1104.55 | 1101.03 | 1652.6 | 1640.9 | – | –
x1 = 0.9059 | 1104.67 | 1101.15 | 1652.1 | 1640.4 | – | –
x1 = 0.912 | 1104.78 | 1101.26 | 1651.6 | 1639.9 | – | –
x1 = 0.9299 | 1105.19 | 1101.66 | 1649.8 | 1638.1 | – | –
x1 = 0.9413 | 1105.43 | 1101.91 | 1648.7 | 1637 | – | –
x1 = 0.9495 | 1105.62 | 1102.1 | 1647.8 | 1636.1 | – | –
x1 = 0.9532 | 1105.68 | 1102.16 | – | – | 13.12 | 10.89
x1 = 0.9546 | 1105.72 | 1102.2 | 1647.5 | 1635.8 | – | –
x1 = 0.9681 | 1105.98 | 1102.46 | 1646.3 | 1634.6 | – | –
x1 = 0.9789 | 1106.18 | – | 1645.4 | 1633.6 | – | –
x1 = 0.9893 | 1106.39 | – | 1644.3 | 1632.5 | – | –
x1 = 1 | 1106.71 | – | 1642.9 | 1631.2 | 13.87 | 11.48
